{
  "source": "patent US9707267B2",
  "about": "“Beta-turn peptidomimetic cyclic compounds for treating dry eye” (Mimetogen Pharmaceuticals, Inc., priority 2008, dated 2017)",
  "key": {"[1]": {"assay": "Maximum solubility in topical dosing solution", "type": "physicochemical", "conditions": "buffered saline ~pH 7, isotonic; 25.0 mg per mL solution", "procedure": "Compound D3 was prepared using a formulation designed by Mimetogen Pharmaceuticals, which is buffered saline ˜pH 7 (as determined by pH indicator strips, EMD Chemicals). Three topical dosing solutions were prepared as follows: • A topical dosing solution of 0.4% was prepared using 4.0 mg of compound dissolved in 845 μL, of sterile milliQ water. The solution was adjusted to ˜pH 7 with 6.5 μL of 1.0 N NaOH (VWR) using pH indicator strips and made isotonic (0.9% NaCl) by adding 148.5 μL of sterile 1.0 M NaCl. • A topical dosing solution of 1.0% was prepared using 10.0 mg of compound dissolved in 845 μL of sterile milliQ water. […] The solution was adjusted to ˜pH 7 with 20 μL of 1.0 N NaOH. The solution was made isotonic by adding 135 μL of sterile 1.0 M NaCl. All solutions were sonicated for 5 min. All compound D3 solutions were stored refrigerated (2-8° C.) for the duration of the study."}, "[2]": {"system": "scopolamine induced dry eye model", "assay": "Scopolamine induced dry eye model, corneal fluorescein staining (Example 3)", "type": "in vivo, rat", "conditions": "single topical 5 μl of 1% (10 mg/mL) on day eight; read day fourteen; score 0 to 4", "procedure": "(§1) Dry eye was induced using scopolamine (Sigma-Aldrich, St. Louis, Mo.), which was continuously and systemically delivered to the animals via an osmotic pump (2ML4 Alzet®; CedarLane, Burlington, Ontario) filled with scopolamine and implanted subcutaneously in the mid dorsal area between the scapulae. The wound was closed with 2-3 wound clips. After the surgery and again the next day, the animals were subcutaneously injected with Carprofen (0.5 mg/100 g) a non-steroidal anti-inflammatory drug and potent, long-acting analgesic in rodents. Animals were anaesthetized before the surgical pump implantation and before all clinical endpoint testing in an Isofluorane 99.9% USP (Abraxis Bioscience, Richmond Hill, Ontario) chamber. Scopolamine was delivered at 12.5 mg/day and, for technical reasons, the data was evaluated at day 14. […]\nThe clinical signs of corneal dryness were evaluated by fluorescein impregnation of the cornea. […] For each animal, the punctate fluorescent-positive area of the ocular surface was recorded in a blinded fashion. […]"}, "[3]": {"system": "scopolamine induced dry eye model", "assay": "Scopolamine induced dry eye model, Schirmer test (Example 3)", "type": "in vivo, rat", "conditions": "single topical instillation of 1% on day eight; measured day thirteen", "procedure": "as §1, with “chamber.” for “chamber. Scopolamine was delivered at 12.5 mg/day and, for technical reasons, the data was evaluated at day 14.”\nTear production was measured with Zone-Quick standardized phenol-red threads (FCI Ophthalmics, Marshfield Hills, Mass.) on animals lightly sedated with Isoflurane. […] The length of the stained moistened portion of the thread was measured in millimeters, using the scale provided with the threads to an accuracy of 1 mm. […]"}, "[4]": {"system": "scopolamine induced dry eye model", "assay": "Scopolamine induced dry eye model, tear fluorescein clearance (Example 3)", "type": "in vivo, rat", "conditions": "single topical instillation of 1% on day eight; measured day thirteen", "procedure": "as §1, with “chamber.” for “chamber. Scopolamine was delivered at 12.5 mg/day and, for technical reasons, the data was evaluated at day 14.”\nTear fluorescein clearance was evaluated as described for humans (Afonso, A A. et al., “Correlation of Tear Fluorescein Clearance and Schirmer Test Scores with Ocular Irritation Symptoms,” Ophthalmology 106:803-810 (1999), the entire content of which is incorporated herein by reference) and modified for rats (Chen, W. et al., “Keratoconjunctivitis Sicca Modifies Epithelial Stem Cell Proliferation Kinetics in Conjunctiva,” Cornea 26:1101-1106 (2007), the entire content of which is incorporated herein by reference). […] The length of cotton wetting in mm determined the volume of the collected tear fluid. […]"}},
  "data": [
    {"smiles": "NCCCC[C@@H]1NC(=O)[C@H](CCC(=O)O)NC(=O)c2cc([N+](=O)[O-])ccc2OCCC(C(=O)NCC(=O)O)NC1=O", "note": "(stereo partly shown) [Compound D3]", "values": [
      {"measurement": "maximum solubility", "setting": "[1]", "value": 2.5, "unit": "%"},
      {"measurement": "corneal fluorescein staining, mean score", "setting": "[2]", "value": "1.1±0.1", "unit": "score"},
      {"measurement": "aqueous tear production, Schirmer test (in words)", "setting": "[3]", "value": "no effect on aqueous tear production"},
      {"measurement": "aqueous tear turnover, fluorescein clearance (in words)", "setting": "[4]", "value": "no effect on aqueous tear turnover"}
    ]}
  ]
}
